Test results as given in article PMC11823594, “Durlobactam in combination with β-lactams to combat Mycobacterium abscessus” (Antimicrobial Agents and Chemotherapy, 2024).

Key:
LDT1 [1] = target: T1, LDT1 (Mycobacterium abscessus, UniProt B1MDC1); assay: Mass spectrometry of covalent adduct formation; type: binding; conditions: protein:drug 1:20, 2 h; mass accuracy ±5 Da; (−) = no change
Procedure: (§1) Truncated sequences of LDT1-5, DDC, PBP B, and PBP-lipo (Δ1–41) were generated by Celtek Biosciences and cloned into the pET28(a) + vector with a tobacco etch virus (TEV) protease cleavage site before the start codon. Clones were transformed into Escherichia coli BL21 (DE3) and grown to an OD600 of 0.6–0.8. […] Cell pellets were collected and stored at −20°C overnight, then resuspended in a buffer containing 50 mM Tris (pH 8.0), 400 mM sodium chloride, and 1 mM Tris (2-carboxyethyl) phosphine hydrochloride (TCEP), followed by sonication and centrifugation. The supernatant was purified using a His Prep FF 16/10 column (GE Healthcare) and eluted with 500 mM imidazole. Eluted protein was dialyzed overnight at 4°C in a buffer with 50 mM Tris (pH 8.0), 150 mM sodium chloride, and 0.5 mM TCEP in the presence of His-tagged TEV protease. To remove the His tag, the mixture was passed over the His Prep FF 16/10 column again.
(§2) The purified proteins listed above were incubated at room temperature with β-lactams or BLIs at a molar ratio of 1:20 for 2 h. The reactions were then quenched with acetonitrile and diluted to 1 mL with 0.1% formic acid in water. Samples were analyzed using a quadrupole time-of-flight (Q-TOF) Waters Synapt-G2-Si electrospray ionization mass spectrometer (ESI-MS) and a Waters Acquity H class ultra-performance liquid chromatography (UPLC) system, equipped with a BEH C18 1.7 µm column (2.1 × 50 mm). The MS was tuned with the following settings: capillary voltage set at 3 kV, sampling cone at 35 V, source offset at 35, source temperature of 100°C, desolvation temperature of 500°C, cone gas flow rate at 100 L/h, desolvation gas flow rate at 800 L/h, and nebulizer set at 6.0. The mobile phases consisted of 0.1% formic acid in water and 0.1% formic acid in 100% acetonitrile, with gradient elution from 10% to 90% of […] over 11 min. The system’s mass accuracy was ±5 Da.

LDT5 = LDT5 (Mycobacterium abscessus, UniProt B1MM58); assay: Mass spectrometry of covalent adduct formation; type: binding; conditions: protein:drug 1:20, 2 h; mass accuracy ±5 Da; (−) = no change
Procedure: as §1, §2

LDT1 [2] = target: T1, LDT1; assay: Steady-state kinetics with nitrocefin (Ki,app); type: biochemical; conditions: for Ki: Ki,app LDT1, nitrocefin at 5 × Km; for Ratio of fCss,avg to Ki,app, LDT1: in parentheses in Table 3
Procedure: (§3) Steady-state kinetic studies were conducted using purified LDTs and PBPs (LDT1-5, PBP B, PBP-lipo, and DDC) as previously described ([20]). The assays were performed using a BioTek Synergy2 multimode reader in conjunction with Gen5 analysis software. Increasing concentrations of NCF (Δε482 = 17,400 M^⁻¹ cm^⁻¹) were used, while fixed concentrations of the LDTs and PBPs were monitored for changes in absorbance at 482 nm over a time period of 0 to 10 min. To determine reaction velocities, a 0.25 cm path length was employed. The steady-state kinetic parameters (Vmax, kcat, and Km) were obtained by fitting the data to the Henri-Michaelis-Menten equation using a nonlinear least-squares fit in Origin 8.1 software (OriginLab, Northampton, MA). The reaction rate (v) at a given substrate concentration ([S]) was calculated according to the following equations: […]
(§4) To determine the apparent inhibition constants (Ki,app) for β-lactams and BLIs, the following experimental condition was employed: NCF as a substrate at a concentration of 5 × Km, LDT/ PBP enzymes with fixed concentration, and β-lactams and BLIs with various concentrations. Changes in absorbance at 482 nm were measured over a period of 0–30 min for each concentration of β-lactams and BLIs. Data were linearized using a Dixon plot, plotting the inverse changes in absorbance (1/ΔA) against the concentrations of β-lactams and BLIs. The observed Ki,app was determined directly from the Dixon plot, and these values were corrected for substrate concentration and affinity for the LDT using the following equation:
(§5) Ki,app=observed Ki,app/1+[NCF]/Km NCF

LDT2 = LDT2 (Mycobacterium abscessus, UniProt B1MMQ4); assay: Steady-state kinetics with nitrocefin (Ki,app); type: biochemical; conditions: for Ki: Ki,app LDT2, nitrocefin at 5 × Km; for Ratio of fCss,avg to Ki,app, LDT2: in parentheses in Table 3
Procedure: as §3, §4, §5

LDT4 [3] = target: T2, LDT4 (Mycobacterium abscessus, UniProt B1MKW1); assay: Steady-state kinetics with nitrocefin (Ki,app); type: biochemical; conditions: in parentheses in Table 3
Procedure: as §3, §4, §5

LDT4 [4] = target: T2, LDT4; assay: Mass spectrometry of covalent adduct formation; type: binding; conditions: protein:drug 1:20, 2 h; mass accuracy ±5 Da; (−) = no change
Procedure: Truncated sequences of LDT1-5, DDC, PBP B, and PBP-lipo (Δ1–41) were generated by Celtek Biosciences and cloned into the pET28(a) + vector with a tobacco etch virus (TEV) protease cleavage site before the start codon. Clones were transformed into Escherichia coli BL21 (DE3) and grown to an OD600 of 0.6–0.8. Protein expression was induced with 0.25 mM isopropyl β-d-1-thiogalactopyranoside (IPTG) and incubated for 18 h at 18°C. Cell pellets were collected and stored at −20°C overnight, then resuspended in a buffer containing 50 mM Tris (pH 8.0), 400 mM sodium chloride, and 1 mM Tris (2-carboxyethyl) phosphine hydrochloride (TCEP), followed by sonication and centrifugation. The supernatant was purified using a His Prep FF 16/10 column (GE Healthcare) and eluted with 500 mM imidazole. Eluted protein was dialyzed overnight at 4°C in a buffer with 50 mM Tris (pH 8.0), 150 mM sodium chloride, and 0.5 mM TCEP in the presence of His-tagged TEV protease. To remove the His tag, the mixture was passed over the His Prep FF 16/10 column again.
as §2

[5] = human, in vivo; cited from earlier work
DDC = DDC (Mycobacteroides abscessus, UniProt B1MDJ1); assay: Mass spectrometry of covalent adduct formation; type: binding; conditions: protein:drug 1:20, 2 h; mass accuracy ±5 Da; (−) = no change
Procedure: as §1, §2

LDT3 = LDT3 (Mycobacterium abscessus, UniProt B1MHQ4); assay: Steady-state kinetics with nitrocefin (Ki,app); type: biochemical; conditions: in parentheses in Table 3
Procedure: as §3, §4, §5

LDT5, sequence (B1MM58 entry or part of it): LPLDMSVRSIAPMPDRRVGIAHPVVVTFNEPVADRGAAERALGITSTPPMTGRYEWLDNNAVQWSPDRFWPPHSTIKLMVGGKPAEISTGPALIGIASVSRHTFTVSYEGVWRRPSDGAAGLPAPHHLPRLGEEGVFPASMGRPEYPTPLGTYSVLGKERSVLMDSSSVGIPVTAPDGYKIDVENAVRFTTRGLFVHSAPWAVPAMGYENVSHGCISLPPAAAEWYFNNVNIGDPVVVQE
DDC, sequence (B1MDJ1 entry or part of it): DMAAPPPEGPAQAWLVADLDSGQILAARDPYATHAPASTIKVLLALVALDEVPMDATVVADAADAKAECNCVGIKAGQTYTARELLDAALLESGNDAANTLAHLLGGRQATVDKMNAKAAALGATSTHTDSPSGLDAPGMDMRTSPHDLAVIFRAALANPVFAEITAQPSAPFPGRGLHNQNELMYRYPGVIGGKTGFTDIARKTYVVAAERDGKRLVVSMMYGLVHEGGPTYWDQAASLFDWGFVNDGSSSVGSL
T2 sequence (B1MKW1 entry or part of it): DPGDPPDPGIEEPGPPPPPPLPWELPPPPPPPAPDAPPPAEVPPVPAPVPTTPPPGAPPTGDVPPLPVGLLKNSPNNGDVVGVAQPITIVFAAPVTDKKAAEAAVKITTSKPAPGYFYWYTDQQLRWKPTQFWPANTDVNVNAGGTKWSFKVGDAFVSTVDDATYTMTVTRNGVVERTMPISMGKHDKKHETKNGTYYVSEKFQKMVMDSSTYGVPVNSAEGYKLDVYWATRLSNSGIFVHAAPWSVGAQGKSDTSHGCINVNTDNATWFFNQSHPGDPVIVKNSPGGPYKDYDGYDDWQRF
LDT2, sequence (B1MMQ4 entry or part of it): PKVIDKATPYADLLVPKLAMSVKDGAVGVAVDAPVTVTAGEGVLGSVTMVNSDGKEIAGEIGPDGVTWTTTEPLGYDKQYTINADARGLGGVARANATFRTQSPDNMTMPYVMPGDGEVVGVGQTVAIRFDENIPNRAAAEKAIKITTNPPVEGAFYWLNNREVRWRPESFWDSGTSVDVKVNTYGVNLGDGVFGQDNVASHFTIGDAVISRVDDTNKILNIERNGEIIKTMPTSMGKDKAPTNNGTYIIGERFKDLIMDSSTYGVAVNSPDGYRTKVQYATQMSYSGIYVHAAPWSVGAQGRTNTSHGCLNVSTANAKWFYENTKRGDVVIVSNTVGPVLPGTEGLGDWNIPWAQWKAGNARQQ
T1 sequence (B1MDC1 entry or part of it): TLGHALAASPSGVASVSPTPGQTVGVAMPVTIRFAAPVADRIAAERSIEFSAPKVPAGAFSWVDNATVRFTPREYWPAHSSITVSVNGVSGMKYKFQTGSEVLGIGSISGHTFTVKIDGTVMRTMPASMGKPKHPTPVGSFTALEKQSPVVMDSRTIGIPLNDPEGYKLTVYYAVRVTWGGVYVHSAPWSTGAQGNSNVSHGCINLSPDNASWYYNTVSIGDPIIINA
LDT3, sequence (B1MHQ4 entry or part of it): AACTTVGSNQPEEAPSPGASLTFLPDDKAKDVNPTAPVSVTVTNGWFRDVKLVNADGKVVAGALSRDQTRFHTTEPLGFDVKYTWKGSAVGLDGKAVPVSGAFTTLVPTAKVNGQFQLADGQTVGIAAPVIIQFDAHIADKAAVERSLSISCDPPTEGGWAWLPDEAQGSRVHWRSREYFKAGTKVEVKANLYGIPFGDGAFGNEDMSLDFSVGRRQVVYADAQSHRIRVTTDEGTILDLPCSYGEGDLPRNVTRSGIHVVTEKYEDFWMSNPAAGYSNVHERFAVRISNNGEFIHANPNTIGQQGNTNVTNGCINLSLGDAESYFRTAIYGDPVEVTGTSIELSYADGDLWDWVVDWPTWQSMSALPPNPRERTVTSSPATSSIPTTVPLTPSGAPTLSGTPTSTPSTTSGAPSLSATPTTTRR

## CC1(C)S[C@@H]2[C@H](NC(=O)[C@H](N)c3ccc(O)cc3)C(=O)N2[C@H]1C(=O)O [Amoxicillin, amoxicillin]
LDT1 [1]
  Observed MW (+ change in mw), LDT1 (23,059): 28,220 (−) Da
LDT5
  Observed MW (+ change in mw), LDT5 (28,220): 28,220 (−) Da

## NC(=O)[C@@H]1CC[C@@H]2CN1C(=O)N2OS(=O)(=O)O [Avibactam, avibactam]
LDT1 [1]
  Observed MW (+ change in mw), LDT1 (23,059): 23,325 (+265) Da
LDT5
  Observed MW (+ change in mw), LDT5 (28,220): 28,220 (−) Da
LDT1 [2]
  Ki: 26.4 µM
  Ratio of fCss,avg to Ki,app, LDT1: 0.7
LDT2
  Ki: 1.7 µM
  Ratio of fCss,avg to Ki,app, LDT2: 11
LDT4 [3]
  Ratio of fCss,avg to Ki,app, LDT4: < 0.02

## CO/N=C(\C(=O)N[C@@H]1C(=O)N2C(C(=O)O)=C(COC(N)=O)CS[C@H]12)c1ccco1 [Cefuroxime, cefuroxime]
LDT1 [1]
  Observed MW (+ change in mw), LDT1 (23,059): 23,059 (−) Da
LDT4 [4]
  Observed MW (+ change in mw), LDT4 (32,567): 32,567 (−) Da
LDT2
  Ki: 1.18 µM
  Ratio of fCss,avg to Ki,app, LDT2: 24
[5]
  Total clearance after IV dosing: 9.0 to 16 L/h

## CC1=C[C@@H]2CN(C(=O)N2OS(=O)(=O)O)[C@@H]1C(N)=O [Durlobactam, durlobactam]
DDC
  Observed MW (+ change in mw), DDC (26,788): 27,066 (+276) Da
LDT1 [1]
  Observed MW (+ change in mw), LDT1 (23,059): 23,336 (+277) Da
LDT5
  Observed MW (+ change in mw), LDT5 (28,220): 28,496 (+276) Da
LDT4 [4]
  Observed MW (+ change in mw), LDT4 (32,567): 32,841 (+276) Da
LDT1 [2]
  Ki: 418 µM
  Ratio of fCss,avg to Ki,app, LDT1: 0.1
LDT4 [3]
  Ratio of fCss,avg to Ki,app, LDT4: 6

## C[C@@H](O)[C@H]1C(=O)N2C(C(=O)O)=C(SCCN=CN)C[C@H]12 [Imipenem, imipenem]
LDT1 [2]
  Ki: 0.00668 µM
  Ratio of fCss,avg to Ki,app, LDT1: 5714
LDT2
  Ki: 0.00668 µM
  Ratio of fCss,avg to Ki,app, LDT2: 6667
LDT4 [3]
  Ratio of fCss,avg to Ki,app, LDT4: 3

## C[C@@H](O)[C@H]1C(=O)N2C(C(=O)O)=C(S[C@H]3CC[S@@+]([O-])C3)S[C@H]12 [Sulopenem, sulopenem]
DDC
  Observed MW (+ change in mw), DDC (26,788): 27,138 (+349) Da
LDT5
  Observed MW (+ change in mw), LDT5 (28,220): 28,306 (+86) Da
LDT4 [4]
  Observed MW (+ change in mw), LDT4 (32,567): 32,652 (+86) Da
LDT2
  Ki: 0.2 µM
  Ratio of fCss,avg to Ki,app, LDT2: 29
LDT3
  Ratio of fCss,avg to Ki,app, LDT3: 0.4
LDT4 [3]
  Ratio of fCss,avg to Ki,app, LDT4: 1.1

## C[C@@H](O)[C@H]1C(=O)N2C(C(=O)O)=C(SC3CN(C4=NCCS4)C3)[C@H](C)[C@H]12 [Tebipenem, tebipenem]
DDC
  Observed MW (+ change in mw), DDC (26,788): 27,173 (+385) Da
LDT1 [1]
  Observed MW (+ change in mw), LDT1 (23,059): 23,443 (+384) Da
LDT5
  Observed MW (+ change in mw), LDT5 (28,220): 28,220 (−) Da
LDT4 [4]
  Observed MW (+ change in mw), LDT4 (32,567): 32,951 (+384) Da
LDT1 [2]
  Ki: 4.95 µM
  Ratio of fCss,avg to Ki,app, LDT1: 0.9
LDT2
  Ki: 0.0261 µM
  Ratio of fCss,avg to Ki,app, LDT2: 170
LDT4 [3]
  Ratio of fCss,avg to Ki,app, LDT4: 2.4
